Source: US20060173028A1, “Therapeutic and/or preventive agent for chronic skin disease” (Kyowa Hakko Kogyo Co., Ltd., priority 2003, published 2006)
Marks after values point to notes of the source that are not given here.

Columns and labels:
[1] = tested on: dermatitis induced by repeated application of oxazolone; assay: Inhibitory effects on the increase of ear thickness in a mouse model of dermatitis induced by repeated application of oxazolone; type: in vivo, BALB/c mice; conditions: 28th day, dose 50 μg/site/time
Procedure: Six-week-old BALB/c mice (male, Charles River Japan, Inc.) were used for the experiment. […] The mice were placed in plastic cages (6 mice per cage) in a breeding room which was kept at a room temperature (19 to 25° C.) and a humidity of 30 to 70% and was illuminated for 12 hours a day (from 7:00 a.m. to 7:00 p.m.). The mice were allowed to freely access commercially available pellets and water.
The experiment was performed according to a method by Kitagaki et al. (J. Invest. Dermatol., […], 105: 749) with small modification.
As an antigen solution, Oxazolone (Sigma-Aldrich) was dissolved in acetone (Kanto Kagaku) to prepare 0.5 weight/volume % of oxazolone-acetone solution. Compound (I) was dissolved in the antigen solution at 5 weight/volume % to prepare a Compound (I)-dissolving antigen solution. BALB/c mice were each applied with 10 μL of the antigen solution to the ear for sensitization. […] On the 28th day when chronic dermatitis symptoms were observed, ear thickness was measured with a dial thickness gauge (Ozaki Seisakusho). The inhibition ratio (%) against the increase of ear thickness was calculated using the following: Inhibition ratio (%)=[{(value in solvent administration group)−(value in Compound (I) administration group)}/{(value in solvent administration group)−(value in non-administration group)}]×100

[2] = tested on: oxazolone-induced ear swelling; assay: Inhibitory effects on oxazolone-induced ear swelling in mice; type: in vivo, BALB/c mice; conditions: dose 100 μg/site, epicutaneous
Procedure: Six-week-old BALB/c mice (male, Charles River Japan, Inc.) were used for the experiment. […] The mice were placed in plastic cages (6 mice per cage) in a breeding room which was kept at a room temperature (19 to 25° C.) and a humidity of 30 to 70% and was illuminated for 12 hours a day (from 7:00 a.m. to 7:00 p.m.). The mice were allowed to freely access commercially available pellets and water. As an antigen solution, Oxazolone (Sigma-Aldrich) was dissolved in acetone (Kanto Kagaku) to prepare 0.5 weight/volume % of oxazolone-acetone solution. Compound (I) was dissolved in the antigen solution at 5 weight/volume % to prepare a Compound (I)-dissolving antigen solution. BALB/c mice were each applied with 100 μL of the antigen solution to the shaved abdomen for sensitization. Mice were shaved on abdomen on the previous day of the sensitization. […] Ear thickness was measured with a dial thickness gauge (Ozaki Seisakusho) just before and 24 hours after the application for inducing .the reaction, and the difference in the thickness was used as an indication of ear swelling. The inhibition ratio (%) against ear swelling was calculated using the following: Inhibition ratio (%)=[{(value in solvent administration group)−(value in Compound (I) administration group)}/{(value in solvent administration group)−(value in non-administration group)}]×100

[3] = tested on: delayed-type allergic reaction in the skin; conditions: animal model; Eur. J. Pharmacol., 2002, 446: 195; cited from earlier work
[4] = tested on: chronic dermatitis models; conditions: J. Pharmacol. Exp. Ther., 1998, 287, p. 705; cited from earlier work

COc1ccc(C(=O)Cc2c(Cl)cncc2Cl)c2c1OC1(CCCC1)O2 [Compound (I), 7-[2-(3,5-dichloro-4-pyridyl)-1-oxoethyl]-4-methoxy-spiro[1,3-benzodioxol-2,1′-cyclopentane]]
Auricle thickness ([1]; repeated application to the ear day 7 to 28, male BALB/c mice): 67** ×0.01 mm
Inhibition Ratio against the increase of ear thickness ([1]; repeated application, relative to solvent and non-administration groups): 41%
Auricular Edema ([2]; difference in ear thickness just before and 24 hours after induction, male BALB/c mice): 16** ×0.01 mm
Inhibition Ratio against ear swelling ([2]; 24 hours after induction, relative to solvent and non-administration groups): 64%

COc1ccc([C@]2(C#N)CC[C@@H](C(=O)O)CC2)cc1OC1CCCC1 [SB207499]
Effect on delayed-type allergic reaction in the skin [3]: inhibit a delayed-type allergic reaction in the skin
Therapeutic effects on chronic dermatitis models [4]: exhibit therapeutic effects on chronic dermatitis models
